Where “and” joins values, the source holds several entries; their conditions need not be identical. Identical values can stand only once. Entries after “also recorded” stand apart in the source; their conditions may differ. Like-named read-outs stand apart in the source and are kept apart here.
Key:
[1] = tested on: Sprague-Dawley rats injected with compound 48/80; assay: compound 48/80-induced shock (histamine release by mast cells) in rats; format: in vivo, rat
Method: As noted above, the release of histamine by mast cells plays a significant role in aggravating asthma attacks. FDP was evaluated to determine whether it could help suppress histamine release by mast cells, in tests that use a compound called "48/80", which is known to trigger the release of histamine by mast cells. This compound, if injected into an animal at an appropriate dosage, will trigger sufficient histamine release to send the animal into anaphylactic shock, which poses a lethal challenge. Useful physiological measurements can be made during the test period, and if mortality is studied as an endpoint, an animal is deemed to survive if it lives for 48 hours after injection of the 48/80 compound.
Anesthetized male Sprague-Dawley rats (n=20) weighing 448±7.4 gm were randomly assigned into 2 groups. Animals in the FDP-treated group were injected intraperitoneally (IP) with a 10% (w/v) solution of FDP in water, at a dosage of 2.5 gm/kg (i.e., 2.5 grams of FDP per kilogram of body weight). […] Thirty minutes later, all rats were injected IP with compound 48/80, at 5 mg/kg.

[2] = tested on: membrane-bonded Na+--K+ ATPase enzymes; format: biochemical, rat; details: pretreatment with 500 μM FDP
Method: Oleander toxins were prepared by air-drying leaves from red-flowering Nerium oleander plants for 4 days, pulverizing the leaves to a fine powder in a blender, and extracting the leaves in a 95% ethyl alcohol solution for 10 days. After extraction, the tincture was filtered, and part of the alcohol solvent was removed by flash evaporation, to a volume where 1 gram of crude drug was equal to 1 ml of alcohol solution. The extract was stored as a stock solution at 0° C., and periodically analyzed for alkaloid content by high pressure liquid chromatography, using oleandrin as an external standard. […]
When ready for use, intact isolated rat hearts were transferred to ice-cold homogenizing medium (50 mM Na2 HPO4, 10 mM Na2 EDTA, and 25 mM NaF, pH 7.4). […]
The pellet obtained after this centrifugation, consisting of crude membrane vesicles, was suspended in a storage buffer (30 mM histidine, 0.25 M sucrose, 10 mM EDTA, and 10 mM NaF, pH 7.5) and stored at -80° C. until use. Protein content was determined using a Biorad protein assay kit, with gamma globulin as a standard.
The Na^+ --K^+ ATPase activity levels for these sarcolemmal membrane preparations was determined calorimetrically by measuring how much inorganic phosphate (Pi) was liberated when the ATPase enzyme hydrolyzed ATP to release phosphate groups. […]

[3] = tested on: rat T-lymphocyte; assay: inhibition of T-lymphocyte proliferation after stimulation with Con-A ((3H)-thymidine incorporation); format: cell-based
Method: Lymphocyte cells were isolated either from human venous blood or rat spleen. The cells were suspended in Dulbecco's media. A manual cell count was done using 0.1 ml of Trypan blue and 0.1 ml of the cell media mixture. […] Tissue culture multi-well plates were used for incubation and in each well 0.1 ml of cell suspension was placed. To the FDP treatment wells (in triplicate) were added 0.1 ml of FDP from 10% stock solution, in serial dilutions which included 1:10, 1:100, 1:250, 1:500; 1:1000, and 1:10000). Cyclosporine treatment wells received 0.1 ml cyclosporine A, at various concentrations including 500 ng/ml, 50 ng/ml; 5 ng/ml and 0.5 ng/ml. All wells except control wells received concanavalin A (conA) at […] (0.01 ml). The final volume for all wells was 0.21 ml.
After incubation, the cells were pulsed in 5% Co2 at 37° C. with 1 μCi of (^3 H)-thymidine (i.e., the cells were incubated for a controlled period of time with thymidine, one of the building blocks of DNA, which contained tritium, a radioactive isotope of hydrogen). The cells were harvested, and washed to remove any tritiated thymidine that had not been incorporated into new DNA. The radioactivity levels of the treated cells were then measured, using a scintillation counter. The results, in Table 2, are reported as counts/min.

[4] = tested on: RNA encoding the IL-2 protein; assay: IL-2 RNA expression in ConA-stimulated lymphocytes (reverse transcription, PCR, densitometry); format: cell-based; details: rat lymphocytes pre-treated with FDP, ConA stimulation, 5 days of incubation
Method: The Applicant also investigated the expression of cytokines by T-lymphocytes. Isolated lymphocytes were obtained from rats, and incubated with stimulation by ConA treatment, as described above; treated cells were pre-treated with FDP, as described above, while control cells were not treated with FDP. After 5 days of incubation, RNA was extracted from the lymphocytes, using RNA-stat60. The integrity of RNA samples was evaluated by use of agarose-formaldehyde gel electrophoresis, and its quantity was determined spectrophotometrically.
The RNA was transcribed into complementary DNA (cDNA), using a reverse transcriptase enzyme. 10 μl of solution containing 1 μg of total cellular RNA was heated at 65° C. for 10 min, and then chilled on ice. To this solution was added 10 μl of a mixture containing 2× reverse transcriptase buffer (100 mM Tris-HCl, pH 8.3, 150 mM KC1, 6 MM MgCl2), 1 μg oligo(dT)12-18, 100 μg/ml of acetylated bovine serum albumin, 0.5 mM mixed deoxynucleotides (dNTP), 10 units of RNAasin, and 100 units of MMLV reverse transcriptase enzyme. The mixture was incubated for 45 min at 35° C., then chilled on ice.
The cDNA sequences for three specific interleukins (IL-1, IL-2, and IL-6) were then amplified, using polymerase chain reaction (PCR) techniques, using previously published sense and anti-sense primer sequences for rat IL-1, rat IL-2, and rat IL-6. […]

[5] = tested on: human IL-2; assay: interleukin-2 production by human T-cells stimulated by Con-A (ELISA); format: cell-based; details: all tested FDP concentrations, result in words
Method: In addition, the amounts of IL-2 released by human T-cells were also evaluated, using ConA stimulation in the presence or absence of FDP. These tests used a commercially available human immunoassay kit (Inter Test-2X IL-2 Elisa Kit, sold by Genzyme Corp., Cambridge, Mass.) which uses monoclonal antibodies that bind specifically to human IL-2. The results, in Table 3, indicate that FDP, at all tested concentrations, abolished IL-2 production by the stimulated human T-lymphocytes. IL-2 concentrations are expressed in picograms per milliliter of media.

[6] = tested on: mongrel dogs challenged with methacholine; assay: acute experimental asthma (bronchospasm) induced in dogs by methacholine inhalation; format: in vivo, dog
[7] = tested on: human volunteers; assay: lung function (peak expiratory flow rate) in healthy human volunteers after nebulized inhalation; format: in vivo
Method: When adjusted to deliver 56-68 L/min with a 5-6 L/min oxygen flow, the final oxygen content was 28%. The output tube from the nebulizer was connected to a standard face mask, which was placed on the face of the subject. The bottle of the nebulizer contained 100 ml of the FDP solution. The FDP dose delivered in the mist, during the 5 consecutive breaths, was calculated to be about 12 mg.
Prior to the FDP inhalation, in each volunteer, 3 consecutive peak expiratory flow rate (PEFR) measurements were made with the aid of an Astech Peak Flow Meter (Center Laboratories, Port Washington, N.Y. 11050). Briefly, these tests involved having each volunteer take as deep a breath as possible, and then blow as hard as possible into the meter. This was done over a period of a couple of minutes, giving the volunteer some time to catch their breath before and after each effort. The mean of these three measurements was considered as the baseline PEFR value for that person. Baseline heart rates, systolic and diastolic blood pressures, and body temperatures were also measured.
FDP inhalations (5 breaths in each set) were then made, approximately 15, 30, 45, 75, 105 and 165 minutes after the baseline measurements had been made. On several occasions, FDP inhalations were also made, 2 and 5 minutes after the baseline measurements were taken. After each such inhalation, three different expirations were measured, all within a couple of minutes after the FDP inhalation had been completed. The various measurements made after FDP inhalation were compared with the baseline values, before FDP administration. The t-test was used to compare paired observations, and differences were considered significant only when the two-tailed p value was <0.05.

[8] = tested on: human test subject with chronic cough; assay: repeated FDP inhalation in a volunteer with chronic cough secondary to allergic bronchitis; format: in vivo
Description: This subject participated in several studies over 10 days. Prior to FDP inhalation, their baseline PEFR was 390 L/min. This value increased with each and every FDP treatment.

[9] = one subject, reported after 10 days of FDP inhalations

Compound: O=C(COP(=O)(O)O)[C@@H](O)[C@H](O)[C@H](O)COP(=O)(O)O [FDP, fructose-1,6-diphosphate]
- arterial pressure ([1]; FDP 2.5 gm/kg IP 30 min before compound 48/80 5 mg/kg IP, vs saline group, P<0.005, FIG. 1): significantly higher than in the saline group
- mortality ([1]; FDP 2.5 gm/kg IP before compound 48/80 5 mg/kg IP, survival = 48 hours, saline group 100%, P<0.001): 20%
- plasma potassium ([1]; FDP 2.5 gm/kg IP before compound 48/80 5 mg/kg IP, vs saline group, P<0.01, FIG. 2, 5 mg/kg): remained within normal values; also recorded: lower
- average arterial partial pressure of oxygen (PO2) ([1]; FDP 2.5 gm/kg IP before compound 48/80, saline group 98±9.2): 121±6.1 mm Hg
- Na+--K+ ATPase activity ([2]; oleander extract 1.0 mg): 19.32 ± 0.62 micromoles of inorganic phosph
- Na+--K+ ATPase activity ([2]; oleander extract 2.0 mg): 15.75 ± 0.39 micromoles of inorganic phosph
- Activation Index ([3]; Con-A plus 1:10 dilution of 10% FDP stock, Con-A alone 30718 ± 4316, no Con-A 527 ± 139): 101 ± 16 counts/min
- Activation Index ([3]; Con-A plus 1:100 dilution of 10% FDP stock): 190 ± 42 counts/min
- Activation Index ([3]; Con-A plus 1:250 dilution of 10% FDP stock): 383 ± 170 counts/min
- Activation Index ([3]; Con-A plus 1:500 dilution of 10% FDP stock): 3592 ± 974 counts/min
- Activation Index ([3]; Con-A plus 1:1000 dilution of 10% FDP stock): 12288 ± 1880 counts/min
- Activation Index ([3]; Con-A plus 1:10,000 dilution of 10% FDP stock): 19046 ± 3237 counts/min
- ConA-induced activation and proliferation of T-cells ([3]; result in words, cyclosporine A tested at 0.5 to 500 ng/ml): able to block ConA activation of the lymphocytes; also recorded: inhibited the ConA-induced activation and proliferation of T-cells in a dose dependent manner
- RNA encoding the IL-2 protein [4]: no detectable levels of RNA encoding the IL-2 protein
- IL-2 production by the stimulated human T-lymphocytes [5]: no detectable IL-2
- arterial blood oxygen partial pressure, Baseline ([6]; dogs pre-treated with aerosolized 10% FDP for 3 minutes, before methacholine): 89 ± 1.74 mm Hg
- arterial blood oxygen partial pressure (PaO2), 5 min ([6]; dogs pre-treated with aerosolized 10% FDP, 5 min after methacholine, controls 47 ± 2.85, p = 0.007): 70±5.62 mm Hg and 69 ± 6.49 mm Hg
- arterial blood oxygen partial pressure (PaO2), 15 min ([6]; dogs pre-treated with aerosolized 10% FDP, 15 min after methacholine, controls 53 ± 3.86, p < 0.001): 81 ± 3.36 mm Hg
- PCO2 ([6]; dogs, methacholine challenge with FDP treatment): no consistent alterations
- PaO2 level at 5 minutes after FDP treatment ([6]; five dogs treated with FDP after (not before) methacholine, p<0.006): 64±4.26 mm Hg
- PaO2 level at 30 minutes after FDP treatment ([6]; five dogs treated with FDP after (not before) methacholine, p<0.01): 80±4.04 mm Hg
- PaO2 level at 15 minutes after FDP treatment ([6]; five dogs treated with FDP after (not before) methacholine, p<0.02): 72±1.84 mm Hg
- side effects ([7]; all tests on volunteers, other than decreased heart rates and increased pulmonary ventilation rates): no side effects were noticed
- blood pressure or body temperature ([7]; five volunteers, 10% FDP nebulized): did not elicit any changes
- mean peak expiratory flow rate (PEFR) following FDP administration ([7]; five volunteers, 10% FDP nebulized, 5 breaths (about 12 mg), baseline 471±29.6, P<0.005): 529 ± 35.6 L/min
- PEFR after inhalation session ([7]; one volunteer, 20% FDP solution for 10 min, 700 mg inhaled, baseline 616): 667 L/min
- side effects ([7]; one volunteer, high dosages (700 to 750 mg, 20% or 10% solution, ten minute inhalation)): no side effects were detected
- PEFR at 10 days after the first inhalation ([8]; one subject with chronic cough, repeated FDP inhalation, baseline 390, P<0.01): 520 L/min
- breathing [8, 9]: substantially improved
- coughing [8, 9]: nearly disappeared

Compound: albuterol sulfate [reference compound]
- PEFR ([7]; albuterol sulfate inhalation solution 0.005% w/v in 0.9% NaCl, two occasions, identical procedures): did not induce any significant change
